Assay type in all cases: physicochemical
Series [1] can be described thus: Precipitation of different acidified tripeptides from aqueous solution heated to reflux and cooled to room temperature. As to conditions: 0.5 mol/L aqueous solution, reflux, cooled to room temperature. The text has this: Aqueous solutions of different tripeptides acidified to the pH as given in table 2 were heated to reflux temperature. The clear solutions (0.5 mol/L) have been cooled to room temperature.
The fine particles of example 3 formed at the bottom of the vessel have been collected by a filtration over a glass frit filter.

Series [2] in a line: Precipitation of the tripeptide from aqueous LiOH solution on acidification with HCl and cooling to 4° C. As to conditions: 54 mg in 0.2 ml 0.1 M aqueous LiOH, pH lowered from 9 with 2M HCl, cooled to 4° C. As to the method: 54 mg Ac-Met(O2)-Val-Val-OH have been dissolved in 0.2 ml 0.1 M aqueous LiOH. A clear solution is formed. The pH was lowered from 9 to the pH as indicated in table 1 by adding 2M HCl and cooled to a temperature of 4° C.
In example 1, a precipitation the tripeptide in fine particles at the bottom of the vessel was observed is formed which was separated by filtration over a glass frit filter.

The nature of series [3]: Precipitation of acidified tripeptide dissolved in water at reflux and cooled to 4° C. (Example 2). As to conditions: pH 1.9; 67.3 g in 500 ml water at reflux, cooled to 4° C. within 2.5 hours, kept 30 minutes. As for the experimental part:
67.3 g acidified Ac-Met(O2)-Val-Val-OH was dissolved in 500 ml water (pH 1.9 of solution) at reflux. The solution was cooled to 4° C. within 2.5 hours and kept at 4° C. during 30 minutes.

Series [4] in a line: Susceptibility against oxidation by atmospheric oxygen. The settings on record: compared to the corresponding tripeptide Ac-Met-Val-Val-OH.

Non-standard residues stand in square brackets, D forms with d. Residues, ends and D or L forms follow the SMILES beside them. Met(O2) = CS(=O)(=O)CC[C@H](N)C(=O)O

In the case of `CC(=O)N[C@@H](CCC(N)=O)C(=O)N1CCC[C@H]1C(=O)N[C@@H](C)C(=O)O` [Ac-Gln-Pro-Ala-OH] (Ac-Gln-Pro-Ala-OH), in series [1] (pH 1.5), the Observation after cooling result was “No particles formed”.

In the case of `CC(=O)N[C@@H](CCS(C)(=O)=O)C(=O)N[C@H](C(=O)N[C@H](C(=O)O)C(C)C)C(C)C` [Ac-Met(O2)-Val-Val-OH] (Ac-[Met(O2)]-Val-Val-OH), the Observation after cooling result is recorded as “Fine particles formed” in series [2] (pH 2), “Opaque solution. No particles formed” in series [2] (pH 3), “Fine particles formed” in series [1] (pH 2) and “fine particles formed” in series [3]. In series [4], the “Susceptibility against oxidation by atmospheric oxygen” value is given as “significant lower susceptibility against oxidation”.

Turning to `CC(=O)N[C@@H](CO)C(=O)N1CCC[C@H]1C(=O)N[C@@H](C)C(=O)O` [Ac-Ser-Pro-Ala-OH] (Ac-Ser-Pro-Ala-OH), in series [1] (pH 0.9), the Observation after cooling entry is recorded as “No particles formed”.

Source of the values: patent publication US20240254164A1, “PURIFICATION OF SPECIFIC TRIPEPTIDE BY ACIDIFICATION” (DSM IP Assets B.V., priority 2021, published 2024).
